biological target: T1, Enoyl-acyl-carrier protein reductase (Plasmodium falciparum, UniProt Q965D5); experiment: Inhibition of Plasmodium falciparum enoyl-ACP reductase assessed as oxidation of NADH to NAD+ after 10 mins by spectrophotometric analysis; conditions: not given
T1 sequence (Q965D5 whole entry): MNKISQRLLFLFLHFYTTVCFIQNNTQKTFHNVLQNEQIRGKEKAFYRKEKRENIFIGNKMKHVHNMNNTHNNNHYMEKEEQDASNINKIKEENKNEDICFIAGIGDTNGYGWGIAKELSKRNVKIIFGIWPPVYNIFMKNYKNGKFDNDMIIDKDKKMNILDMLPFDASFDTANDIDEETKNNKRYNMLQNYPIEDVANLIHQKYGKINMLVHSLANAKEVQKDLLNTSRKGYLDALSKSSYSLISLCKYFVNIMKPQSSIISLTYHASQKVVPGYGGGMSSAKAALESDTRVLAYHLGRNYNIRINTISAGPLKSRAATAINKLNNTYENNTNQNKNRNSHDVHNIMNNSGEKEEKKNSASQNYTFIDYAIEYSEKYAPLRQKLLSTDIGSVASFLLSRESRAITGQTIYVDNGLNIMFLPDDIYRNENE

Row | IC50 | SMILES
1 | Not Active | C[C@H]1C[C@@H](O)[C@]2(C)C(C(=O)O)=CCC[C@H]2[C@]1(C)CCc1ccoc1
2 | Not Active | CCCCCCCCCCCCCCCCCCCCCCOC(=O)/C=C/c1ccc(O)c(O)c1 [DOCOSYL CAFFEATE]
3 | Not Active | COc1c(-c2ccc(O)cc2)oc2cc(O)cc(O)c2c1=O [ISOKAEMPFERIDE]
4 | Not Active | CC(C)=CCc1cc(O[C@@H]2O[C@H](CO)[C@@H](O)[C@H](O)[C@H]2O)ccc1O [NEBRODENSIDE A]

same assay, conditions: read-out: IC50

Row | IC50 [µM] | SMILES
5 | 91.1 | COc1ccc(-c2oc3c(Cc4c(O)c(OC)c(O)c5c(=O)c(OC)c(-c6ccc(OC)cc6)oc45)c(O)c(OC)c(O)c3c(=O)c2OC)cc1 [METHYLENEBISSANTIN]
6 | 920 | COc1cc(C(=O)O)ccc1O [VANILLIC ACID]

Reference: ChEMBL document CHEMBL1933049, “Methylenebissantin: a rare methylene-bridged bisflavonoid from Dodonaea viscosa which inhibits Plasmodium falciparum enoyl-ACP reductase” (Bioorg Med Chem Lett, 2012)
